What was measured:
α-tocopheroxyl radical = assay: Tocopheroxyl radical attenuating ability (TRAA); type: biochemical; conditions: kobs in presence (+) or absence (−) of test compound
[1] = tested on: tocopherol-mediated peroxidation (TMP); assay: Anti-TMP index; type: biochemical
[2] = tested on: restenosis in rabbit abdominal aorta after arterial balloon injury; assay: Intimal thickening (intima and media ratio) in rabbit aorta after arterial balloon injury; type: in vivo; conditions: rabbits, 0.02% PDA474 in chow for 9 weeks
Method: The intima and media ratio (IMR) was determined by tracing the intimal and medial areas, and dividing their respective total pixel numbers. Higher IMR indicate larger lesions. *Denotes a statistically significant difference with p<0.05.
PDA474 was synthesised and supplied in pure form (99%) by Polysciences, Inc. (400 Valley Road, Warrington, Pa. 18976, USA).
Twelve New Zealand White rabbits were fed a standard rabbit chow (100 g per day) with (n=6) or without (n=6) 0.02 weight % PDA474 (in dry powder form) for 9 weeks. The initial dosage was based on in vitro studies and other useful dosage amounts can be easily derived using a similar approach.
At the end of week 3, the abdominal aorta of all rabbits was injured by ABI. At the end of week 9, the infra-renal abdominal aorta was removed, fixed in 4% buffered formalin, embedded in paraffin, sectioned and stained with Verhoeff Hematoxylin. The intima and media ratio (IMR) was then determined by tracing the intimal and medial areas, and dividing their respective total pixel numbers. Higher IMR indicate larger lesions.

[3] = tested on: atherosclerosis/restenosis in ballooned New Zealand White rabbits; assay: Atherosclerosis/restenosis in cholesterol-fed, ballooned New Zealand White rabbits; type: in vivo; conditions: 2% cholesterol diet with 1% probucol for 6 weeks
Method: Aortic endothelial denudation was performed at week 3 by withdrawing an inflated 3F Fogarty balloon embolectomy catheter three times down the length of the aorta. Plasma was obtained from animals as described in Example 1 at the start and end of the study. At the end of the study period, individual aortas were removed and prepared for HPLC analysis as in Example 1. Lipids and antioxidants including probucol and its metabolites, bisphenol and diphenoquinone, were analyzed by RP-HPLC as described previously. Aortas designated for histology were perfusion-fixed with 4% (v/v) formaldehyde and transferred into formalin. Cross-sections (2-3 μm thick) were prepared and stained with Weigert's hematoxylin-van Gieson, and the intima to media ratio determined for three sections.

[4] = tested on: coronary restenosis after BA; conditions: probucol given alone, compared to the placebo, MVP trial; cited from earlier work
[5] = Plasma lipids and antioxidants in apoE−/− mice; type: in vivo
Method: Male C57BL/6J mice, homozygous for the disrupted apoE gene (apoE−/−) were fed standard chow (Lab-Feed, Sydney, Australia) until aged 10 weeks. […] Separate aliquots were acidified with metaphosphoric acid (5%) to stabilize vitamin C prior to freezing and storage at −80° C. The remainder was pooled appropriately and used for ex vivo oxidation initiated by the peroxyl radical generator AAPH and lipoprotein separation by FPLC with UV280nm detection, as described in J Lipid Res. 1 999;40:1104-1112. Lipid-soluble antioxidants and lipids were quantified by HPLC as described in FASEB J. 1999;13:667-675. For ascorbate analysis, frozen acidified samples were thawed, diluted with DPBS to adjust the pH to 7.4 and then immediately subjected to HPLC. Plasma triglycerides were determined enzymatically (Boehringer, Mannheim, Germany).

[6] = tested on: lipoprotein oxidation in the vessel wall; assay: Aortic lipids, oxidised lipids and antioxidants in apoE−/− mice (HPLC of aortic homogenates); type: in vivo
Method: Male C57BL/6J mice, homozygous for the disrupted apoE gene (apoE−/−) were fed standard chow (Lab-Feed, Sydney, Australia) until aged 10 weeks. […] After bleeding, mice were gravity-perfused for 5 min with DPBS containing 20 μM BHT and 1 mM EDTA (Buffer A) and aortas removed as described in Letters JM, et al (1999). Briefly, hearts, ascending and descending aortas (past the femoral junction) were excised and carefully cleaned. […] Once cleaned, aortas were separated from the heart taking care to include all aortic material while avoiding heart tissue. To obtain sufficient material for HPLC analysis (i.e., 30-40 mg wet weight tissue) it was necessary to pool 7-8 aortas. Separate pools of aortas were prepared for both groups and then immediately frozen in Buffer A and stored at −80° C. until analyses. Pooled aortas were snap frozen in liquid nitrogen, pulverised, resuspended in Buffer A, homogenised and then either treated with metaphosphoric acid (for ascorbate) or extracted and the hexane fraction analysed for lipid-soluble antioxidants, cholesterol (C), choleseteryl esters (CE), lipid hydroperoxides (LOOH) and cholesteryl ester hydroxides (CE-OH) by HPLC as described in Methods Enzymol. 1994;233:469489. LOOH and CE-OH were measured as markers of lipoprotein lipid oxidation, as they are the primary and major oxidation products formed when lipoproteins from apoE−/− mice undergo oxidation. […] All compounds were quantified by peak area comparison with authentic standards, and protein determined.

[7] = Lipids and antioxidants in plasma lipoprotein fractions (size exclusion FPLC) of apoE−/− mice; type: in vivo; conditions: pooled plasma, 1% w/w probucol, 24 weeks
Method: Plasma was collected from individual mice, pooled, diluted 1:10 with buffer used for FPLC and 300 μL subjected to size exclusion chromatography. Chromatograms shown are representative of two analyses of independent pooled plasma samples. The horizontal bars indicate the corresponding fractions collected for each lipoprotein pool. Plasma was obtained from control and probucol mice and aliquots frozen for subsequent determination of lipids. Separate aliquots were acidified with metaphosphoric acid (5%) to stabilize vitamin C prior to freezing and storage at −80° C. The remainder was pooled appropriately and used for ex vivo oxidation initiated by the peroxyl radical generator AAPH and lipoprotein separation by FPLC with UV280nm detection, as described in J Lipid Res. 1 999;40:1104-1112. […] Two consecutive separations each employing 300 μL undiluted plasma were carried out. The corresponding eluents from both injections were collected, pooled according to fractions corresponding to very low-density lipoprotein (VLDL), LDL, and HDL plus mouse serum albumin (see FIG. 3) and then extracted and analysed for lipids and antioxidants.

plasma lipids = assay: Ex vivo AAPH-induced oxidation of plasma from apoE−/− mice; type: in vivo; conditions: plasma from probucol-treated mice, 5 mM AAPH, 37° C.
Method: Pooled plasma obtained from control (open symbols) or probucol-treated (closed symbols) mice was exposed to 5 mM of the aqueous peroxyl radical generator AAPH and incubated under air at 37° C. […] Data shown are mean±SD of a single oxidation experiment performed in triplicate using pooled plasma. Where error bars are not shown, error is smaller than the symbol.
Plasma was obtained from control and probucol mice and aliquots frozen for subsequent determination of lipids. Separate aliquots were acidified with metaphosphoric acid (5%) to stabilize vitamin C prior to freezing and storage at −80° C. The remainder was pooled appropriately and used for ex vivo oxidation initiated by the peroxyl radical generator AAPH and lipoprotein separation by FPLC with UV280nm detection, as described in J Lipid Res. 1 999;40:1104-1112.
Enhanced resistance of plasma lipoproteins to oxidation is often used as a measure of antioxidant efficacy. Therefore, we examined AAPH-induced oxidation of pooled plasma from control and treated animals. […] These observations can be explained readily on the basis of tocopherol-mediated peroxidation.

[8] = tested on: atherosclerotic lesions in apoE−/− mice; assay: Atherosclerotic lesion cross-section areas (morphometry) in apoE−/− mice; type: in vivo; conditions: lesion area of probucol group relative to controls
Method: Male C57BL/6J mice, homozygous for the disrupted apoE gene (apoE−/−) were fed standard chow (Lab-Feed, Sydney, Australia) until aged 10 weeks. […] The high fat diet (control and probucol-supplemented) was prepared, according to the specifications of the Harlan Teklad diet TD88137. […] After bleeding, mice were gravity-perfused for 5 min with DPBS containing 20 μM BHT and 1 mM EDTA (Buffer A) and aortas removed as described in Letters JM, et al (1999). Briefly, hearts, ascending and descending aortas (past the femoral junction) were excised and carefully cleaned. […] Once cleaned, aortas were separated from the heart taking care to include all aortic material while avoiding heart tissue. To obtain sufficient material for HPLC analysis (i.e., 30-40 mg wet weight tissue) it was necessary to pool 7-8 aortas. Separate pools of aortas were prepared for both groups and then immediately frozen in Buffer A and stored at −80° C. until analyses. Lesions were assessed at four different sites along the aorta, in the aortic root, in the aortic arch, the descending thoracic and in the proximal abdominal aorta, and cross-sections (2-3 μm thick) were prepared and stained with Weigert's hematoxylin-van Gieson.

[9] = compared to controls, per protein

Cc1cc(C(C)(C)C)c(O)c(C(C)(C)C)c1 [BHT]
TRAA (decay of α-tocopheroxyl radical; kobs(+)/kobs(−)) (α-tocopheroxyl radical): Immediate decay
Anti-TMP index [1]: 8-10

CC(C)(C)c1cc(SSc2cc(C(C)(C)C)c(O)c(C(C)(C)C)c2)cc(C(C)(C)C)c1O [PDA474]
lower IMR in drug-treated animals vs control [2]: 34%
intima and media ratio (IMR) ([2]; ABI at end of week 3, mean±SEM, n=6): 0.76±0.13

CC(C)(Sc1cc(C(C)(C)C)c(O)c(C(C)(C)C)c1)Sc1cc(C(C)(C)C)c(O)c(C(C)(C)C)c1 [Probucol]
proportion of aortic lipids that was oxidized [3]: not affected
atherosclerosis ([3]; aortic denudation at week 3): significantly decreased atherosclerosis
content of plasma and aortic lipids, and absolute amounts of oxidized lipids ([3]; vs controls): significantly decreased
reduction of angiographic lumen loss [4]: 68%
reduction of need for repeat angioplasty at 6 months [4]: 58%
reduction of restenosis rate per segment [4]: 47%
Plasma Triglyceride ([5]; apoE−/− mice, probucol-supplemented diet, 24 weeks): 0.4 ± 0.0 mM
drug converted into bisphenol or diphenoquinone, plasma ([5]; plasma): ~8%
increase of plasma ascorbate ([5]; plasma, probucol treated vs control mice): ~1.4 fold
drug metabolised to bisphenol or diphenoquinone, aorta ([6]; aorta): ~11%
decrease of aortic concentration of C [6, 9]: 5.6 fold
decrease of aortic concentration of total CoQ (ubiquinones plus ubiquinols) [6, 9]: 2.5 fold
decrease of aortic concentration of vitamin E [6, 9]: 2.9 fold
-TOH in HDL fraction ([7]; HDL plus mouse serum albumin): 1.4
C20:4 in HDL fraction ([7]; HDL plus mouse serum albumin): 24.0
C in HDL fraction ([7]; HDL plus mouse serum albumin): 0.12
Total CoQ in HDL fraction ([7]; HDL plus mouse serum albumin): 0.1
-TOH in LDL fraction ([7]; LDL): 7.8
C20:4 in LDL fraction ([7]; LDL): 50.4
C in LDL fraction ([7]; LDL): 0.96
Total CoQ in LDL fraction ([7]; LDL): 0.4
-TOH in VLDL fraction ([7]; VLDL): 0.56
C18:2 in VLDL fraction ([7]; VLDL): 340
Total CoQ in VLDL fraction ([7]; VLDL): 0.1
probucol level during the oxidation period (plasma lipids): remained unchanged
onset and initial rate of accumulation of CE-O(O)H (plasma lipids; vs control plasma): delayed and decreased respectively
Treatment effect, Abdominal Aorta [8]: 10%
Treatment effect, Arch [8]: 44%
Treatment effect, Descending Thoracic Aorta [8]: 15%
